Consider three compounds from ChEMBL document CHEMBL3822430, “Discovery of pyrido[3,4-g]quinazoline derivatives as CMGC family protein kinase inhibitors: Design, synthesis, inhibitory potency and X-ray co-crystal structure” (Eur J Med Chem, 2016).

Each structure is given as a SMILES string.

For assay [1], the target named is Glycogen synthase kinase-3 (Sus scrofa, UniProt B2LUN4+I6LNT8). Briefly: Inhibition of porcine brain GSK3alpha/beta using GS-1 as substrate incubated for 10 mins in presence of [gamma-32 ATP] by liquid scintillation counting analysis.
Assay [2] is described as follows: Inhibition of porcine brain CK1 delta/epsilon using CK-S as substrate incubated for 30 mins in presence of [gamma-33 ATP] by liquid scintillation counting analysis. Further details: species or system Sus scrofa.
In assay [3] the target is Dual specificity tyrosine-phosphorylation-regulated kinase 1A (Rattus norvegicus, UniProt Q63470). The experiment in a line: Inhibition of GST-tagged rat recombinant DYRK1A expressed in Escherichia coli using myelin basic protein as substrate incubated for 30 mins in presence of [gamma-33 ATP] by liquid scintillation counting analysis.
Assay [4] concerns the target Cyclin-dependent kinase 5/CDK5 activator 1 (Homo sapiens, UniProt Q00535). Briefly: Inhibition of GST-tagged human recombinant CDK5/p25 expressed in Escherichia coli using histone H1 as substrate incubated for 30 mins in presence of [gamma-33 ATP] by liquid scintillation counting analysis.
The target in assay [5] is Dual specificity protein kinase CLK1 (Homo sapiens, UniProt P49759). The experiment in a line: Inhibition of GST-tagged human recombinant CLK1 expressed in Escherichia coli using RS peptide as substrate.
Sequence of Dual specificity protein kinase CLK1 (P49759 whole entry): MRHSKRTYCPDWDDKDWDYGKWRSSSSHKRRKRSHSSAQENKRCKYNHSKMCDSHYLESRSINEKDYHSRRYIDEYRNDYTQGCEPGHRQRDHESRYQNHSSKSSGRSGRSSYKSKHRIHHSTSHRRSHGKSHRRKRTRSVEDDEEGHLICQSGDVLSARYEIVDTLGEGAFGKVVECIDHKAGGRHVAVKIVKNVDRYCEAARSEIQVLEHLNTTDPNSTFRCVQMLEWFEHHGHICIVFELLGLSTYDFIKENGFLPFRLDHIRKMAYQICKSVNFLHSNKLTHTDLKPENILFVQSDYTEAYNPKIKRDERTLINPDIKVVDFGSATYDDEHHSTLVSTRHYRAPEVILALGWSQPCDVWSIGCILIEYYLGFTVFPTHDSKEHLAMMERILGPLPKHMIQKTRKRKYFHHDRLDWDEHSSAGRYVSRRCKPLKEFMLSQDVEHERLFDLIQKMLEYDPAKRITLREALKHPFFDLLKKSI

Sequence of Cyclin-dependent kinase 5/CDK5 activator 1 (Q00535 whole entry): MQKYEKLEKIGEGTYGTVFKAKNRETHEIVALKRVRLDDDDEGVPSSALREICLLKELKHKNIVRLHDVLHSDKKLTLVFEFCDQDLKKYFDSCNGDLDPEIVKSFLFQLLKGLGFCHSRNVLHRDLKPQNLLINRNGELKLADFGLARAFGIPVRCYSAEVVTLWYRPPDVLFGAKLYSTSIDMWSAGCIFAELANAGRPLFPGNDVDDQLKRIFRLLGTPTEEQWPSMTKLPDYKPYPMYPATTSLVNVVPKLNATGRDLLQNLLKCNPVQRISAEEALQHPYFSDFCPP
Sequence of Cyclin-dependent kinase 5/CDK5 activator 1 (Q15078 whole entry, further chain): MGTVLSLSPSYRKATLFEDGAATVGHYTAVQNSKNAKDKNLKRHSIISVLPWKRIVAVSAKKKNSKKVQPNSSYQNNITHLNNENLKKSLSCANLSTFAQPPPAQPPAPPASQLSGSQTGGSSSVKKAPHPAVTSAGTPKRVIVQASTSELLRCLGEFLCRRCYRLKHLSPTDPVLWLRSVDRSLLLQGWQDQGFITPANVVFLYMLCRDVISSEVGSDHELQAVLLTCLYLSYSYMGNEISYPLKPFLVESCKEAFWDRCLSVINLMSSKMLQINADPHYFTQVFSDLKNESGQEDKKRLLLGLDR

In the case of `Nc1ncc2cc3cnccc3c([N+](=O)[O-])c2n1`, the IC50 in assay [1] was 2.2 µM; in assay [2] it was 0.78 µM; in assay [3] it was 0.62 µM; in assay [4], more than 10 µM; in assay [5], 0.069 µM.
As to `Nc1ncc2cc3cnccc3c(N)c2n1`, the IC50 in assay [1] came to 9.1 µM; in assay [2] it was 5.8 µM; in assay [3], 0.028 µM; in assay [4] it was 4.8 µM; in assay [5] it was 0.041 µM.
Consider `Nc1ncc2cc3cnccc3cc2n1`, for which the IC50 is more than 10 µM in assay [1]; 0.8 µM in assay [2]; 0.18 µM in assay [3]; more than 10 µM in assay [4]; 0.19 µM in assay [5].

One may read the IC50 as the concentration that gives 50% inhibition.
